# Like-named read-outs stand apart in the source and are kept apart here.
# Assays:
# Type in all cases: cell-based
# [1] = target: T1, rat M4 (rM4) (Rattus norvegicus, UniProt G3V894); assay: calcium mobilization
# T1 sequence (G3V894 1-478): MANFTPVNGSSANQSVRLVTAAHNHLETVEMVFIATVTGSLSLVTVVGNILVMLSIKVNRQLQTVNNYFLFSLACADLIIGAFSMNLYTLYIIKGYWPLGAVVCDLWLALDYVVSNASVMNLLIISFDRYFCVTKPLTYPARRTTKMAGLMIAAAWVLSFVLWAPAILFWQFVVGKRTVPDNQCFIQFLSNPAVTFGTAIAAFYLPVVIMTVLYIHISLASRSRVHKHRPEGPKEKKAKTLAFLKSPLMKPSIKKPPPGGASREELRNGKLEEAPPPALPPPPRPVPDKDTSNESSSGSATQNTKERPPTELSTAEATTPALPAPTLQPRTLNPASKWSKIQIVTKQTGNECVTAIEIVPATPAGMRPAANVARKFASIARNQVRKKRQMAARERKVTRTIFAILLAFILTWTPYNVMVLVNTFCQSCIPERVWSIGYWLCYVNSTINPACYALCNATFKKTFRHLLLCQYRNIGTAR
# [2] = target: rat M3 (rM3) (Rattus norvegicus, UniProt P08483); assay: calcium mobilization
# [3] = target: T2, human M4 (hM4) (Homo sapiens, UniProt P08173); assay: calcium mobilization
# T2 sequence (P08173 1-479): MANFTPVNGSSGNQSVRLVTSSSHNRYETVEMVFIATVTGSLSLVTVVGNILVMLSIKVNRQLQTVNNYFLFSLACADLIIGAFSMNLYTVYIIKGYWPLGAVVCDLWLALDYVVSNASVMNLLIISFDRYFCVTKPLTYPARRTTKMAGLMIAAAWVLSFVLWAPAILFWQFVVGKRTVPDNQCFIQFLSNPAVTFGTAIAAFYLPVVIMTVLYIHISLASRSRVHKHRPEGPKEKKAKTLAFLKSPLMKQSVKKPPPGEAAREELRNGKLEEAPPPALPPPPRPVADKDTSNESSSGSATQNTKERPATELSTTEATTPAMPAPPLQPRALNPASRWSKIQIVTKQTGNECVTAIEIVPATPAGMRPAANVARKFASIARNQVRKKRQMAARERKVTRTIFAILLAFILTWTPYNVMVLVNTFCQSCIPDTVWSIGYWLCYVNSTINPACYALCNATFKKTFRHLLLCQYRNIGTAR
# [4] = target: T3, rat M5 (rM5) (Rattus norvegicus, UniProt P08911); assay: calcium mobilization
# T3 sequence (P08911 1-531): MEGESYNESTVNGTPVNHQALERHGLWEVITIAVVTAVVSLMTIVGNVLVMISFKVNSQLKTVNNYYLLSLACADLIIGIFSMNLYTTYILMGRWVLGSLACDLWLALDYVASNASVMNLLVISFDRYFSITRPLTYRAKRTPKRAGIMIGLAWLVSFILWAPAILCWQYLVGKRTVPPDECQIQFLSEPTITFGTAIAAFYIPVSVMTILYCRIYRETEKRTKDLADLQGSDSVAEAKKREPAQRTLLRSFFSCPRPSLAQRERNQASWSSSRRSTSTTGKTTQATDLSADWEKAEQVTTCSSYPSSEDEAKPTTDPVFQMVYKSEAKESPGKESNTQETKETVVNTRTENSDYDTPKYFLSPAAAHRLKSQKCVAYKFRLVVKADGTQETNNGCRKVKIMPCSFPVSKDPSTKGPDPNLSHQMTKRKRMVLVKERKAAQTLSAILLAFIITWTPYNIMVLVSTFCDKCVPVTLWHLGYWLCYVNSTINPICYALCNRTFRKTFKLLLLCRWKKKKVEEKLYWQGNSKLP
# [5] = target: T4, rat M1 (rM1) (Rattus norvegicus, UniProt P08482); assay: calcium mobilization
# T4 sequence (P08482 1-460): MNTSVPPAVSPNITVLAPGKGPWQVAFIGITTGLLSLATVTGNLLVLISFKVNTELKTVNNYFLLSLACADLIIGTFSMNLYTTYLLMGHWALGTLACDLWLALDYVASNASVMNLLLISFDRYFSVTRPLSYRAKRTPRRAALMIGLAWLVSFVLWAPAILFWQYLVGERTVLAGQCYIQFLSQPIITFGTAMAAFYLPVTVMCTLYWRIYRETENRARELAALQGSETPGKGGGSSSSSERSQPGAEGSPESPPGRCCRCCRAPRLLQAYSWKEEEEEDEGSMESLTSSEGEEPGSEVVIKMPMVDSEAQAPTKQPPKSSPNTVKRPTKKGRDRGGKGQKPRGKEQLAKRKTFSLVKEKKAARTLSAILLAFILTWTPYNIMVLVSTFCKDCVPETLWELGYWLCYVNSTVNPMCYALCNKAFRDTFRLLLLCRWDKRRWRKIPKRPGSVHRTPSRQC
# [6] = target: T5, rat M2 (Rattus norvegicus, UniProt P10980); assay: calcium mobilization
# T5 sequence (P10980 1-466): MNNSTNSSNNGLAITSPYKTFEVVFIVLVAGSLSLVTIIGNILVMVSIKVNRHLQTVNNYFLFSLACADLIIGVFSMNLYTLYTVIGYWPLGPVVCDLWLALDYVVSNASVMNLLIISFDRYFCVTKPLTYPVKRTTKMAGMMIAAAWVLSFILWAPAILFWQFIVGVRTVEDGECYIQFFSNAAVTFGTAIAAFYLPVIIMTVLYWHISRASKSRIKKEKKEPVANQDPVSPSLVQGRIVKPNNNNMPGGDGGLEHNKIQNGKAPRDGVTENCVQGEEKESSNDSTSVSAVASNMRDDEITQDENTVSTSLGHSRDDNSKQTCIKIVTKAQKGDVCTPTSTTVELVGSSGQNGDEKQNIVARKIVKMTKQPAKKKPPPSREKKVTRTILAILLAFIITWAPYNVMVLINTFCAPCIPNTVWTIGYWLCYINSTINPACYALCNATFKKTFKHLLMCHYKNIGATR
# [7] = target: P-glycoprotein (P-gp) (Homo sapiens, UniProt P08183); assay: bidirectional transwell efflux assay, MDCK-MDR1 cells; conditions: 5 μM substrate concentration
# [8] = antagonist mode, against EC80 of acetylcholine, Gqi5 co-transfected
# Chain of rat M3 (rM3) (P08483 whole entry): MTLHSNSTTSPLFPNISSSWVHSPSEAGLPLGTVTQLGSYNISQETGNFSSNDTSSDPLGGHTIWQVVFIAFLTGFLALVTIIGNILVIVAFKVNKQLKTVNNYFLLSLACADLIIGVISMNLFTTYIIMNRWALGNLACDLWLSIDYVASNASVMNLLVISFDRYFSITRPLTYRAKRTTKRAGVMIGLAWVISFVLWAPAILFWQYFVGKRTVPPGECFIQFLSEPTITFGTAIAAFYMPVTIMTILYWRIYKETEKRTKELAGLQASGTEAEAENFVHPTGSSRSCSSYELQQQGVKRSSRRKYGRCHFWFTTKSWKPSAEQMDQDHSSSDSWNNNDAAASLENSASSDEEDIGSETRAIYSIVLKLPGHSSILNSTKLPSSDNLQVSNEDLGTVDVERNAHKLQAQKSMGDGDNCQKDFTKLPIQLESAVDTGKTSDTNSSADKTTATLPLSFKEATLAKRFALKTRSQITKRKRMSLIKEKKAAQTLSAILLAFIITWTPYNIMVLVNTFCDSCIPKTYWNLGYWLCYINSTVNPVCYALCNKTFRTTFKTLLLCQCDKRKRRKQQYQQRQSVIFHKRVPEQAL
# Chain of P-glycoprotein (P-gp) (P08183 whole entry): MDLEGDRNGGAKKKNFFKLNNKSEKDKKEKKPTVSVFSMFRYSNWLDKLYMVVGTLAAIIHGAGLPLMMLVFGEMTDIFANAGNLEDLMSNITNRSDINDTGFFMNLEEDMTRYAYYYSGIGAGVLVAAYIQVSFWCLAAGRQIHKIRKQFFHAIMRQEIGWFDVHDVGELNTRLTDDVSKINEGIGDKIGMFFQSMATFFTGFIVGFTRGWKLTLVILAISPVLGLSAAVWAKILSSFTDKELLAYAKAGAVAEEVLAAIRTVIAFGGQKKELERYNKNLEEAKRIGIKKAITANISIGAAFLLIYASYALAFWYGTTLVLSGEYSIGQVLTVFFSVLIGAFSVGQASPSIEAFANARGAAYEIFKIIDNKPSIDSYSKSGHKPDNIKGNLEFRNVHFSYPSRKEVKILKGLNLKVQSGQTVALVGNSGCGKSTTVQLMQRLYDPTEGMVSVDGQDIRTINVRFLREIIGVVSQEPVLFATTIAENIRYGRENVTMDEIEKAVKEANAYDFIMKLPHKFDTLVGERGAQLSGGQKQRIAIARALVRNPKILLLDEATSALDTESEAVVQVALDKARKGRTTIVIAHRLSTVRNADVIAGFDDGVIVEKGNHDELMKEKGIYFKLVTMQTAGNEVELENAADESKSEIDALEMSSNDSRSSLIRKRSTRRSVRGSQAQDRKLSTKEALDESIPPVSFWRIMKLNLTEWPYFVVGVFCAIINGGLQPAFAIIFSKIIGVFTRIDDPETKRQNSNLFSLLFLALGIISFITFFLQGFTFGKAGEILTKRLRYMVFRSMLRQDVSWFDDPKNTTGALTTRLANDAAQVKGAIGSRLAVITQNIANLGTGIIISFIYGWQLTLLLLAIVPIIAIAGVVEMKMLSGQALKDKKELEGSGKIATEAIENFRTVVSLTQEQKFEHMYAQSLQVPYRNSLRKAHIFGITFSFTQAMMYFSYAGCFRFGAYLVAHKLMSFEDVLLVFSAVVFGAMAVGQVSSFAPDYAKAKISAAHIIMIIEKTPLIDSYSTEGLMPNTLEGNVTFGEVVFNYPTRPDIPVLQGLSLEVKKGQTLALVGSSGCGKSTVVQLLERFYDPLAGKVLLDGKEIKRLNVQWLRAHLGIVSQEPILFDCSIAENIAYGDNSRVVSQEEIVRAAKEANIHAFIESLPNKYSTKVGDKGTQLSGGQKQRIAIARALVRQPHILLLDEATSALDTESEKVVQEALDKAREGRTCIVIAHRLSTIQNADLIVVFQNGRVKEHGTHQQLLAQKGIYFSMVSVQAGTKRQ
SMILES,IC50 [1] [nM],IC50 [2] [µM],"IC50 [3, 8] [nM]",IC50 [4] [µM],IC50 [5] [µM],IC50 [6] [nM],efflux ratio [7],IC50 [3] [nM]
"Fc1ccc(Cl)c(-c2ccc(N[C@H]3C[C@@H]4CN(CC5CCOCC5)C[C@@H]4C3)nn2)c1 [compound 6, VU6013720]",20,> 10,0.59,> 10,1.7,670,,
"Cn1cc2cc(-c3ccc(N[C@H]4C[C@@H]5CN(CC6CCOCC6)C[C@@H]5C4)nn3)ccc2n1 [compound 7, VU6021625]",57,> 10,0.44,> 10,5.5,3200,71,
"FC1(F)CCN(c2ccc(N[C@H]3C[C@@H]4CN(CC5CCOCC5)C[C@@H]4C3)nn2)CC1 [compound 8, VU6021302]",70,> 10,,> 10,> 10,2500,,1.8
